The subject of one experiment is Staphylococcus aureus. The experiment can be described thus: Antibacterial activity against Staphylococcus aureus TP32 clinical isolate at 1 mg/ml after 24 hr by agar well diffusion method. The experiment is classed as functional. The conditions noted are these: for zone of inhibition at 1000 µg/mL: TP32, 24 h, read-out: IZ. A general note: Agar diffusion results depend on both activity and mobility in agar.

The test system of experiment [1] is Bacillus cereus. Nature of the experiment: Antibacterial activity against Bacillus cereus RSKK 863 at 1 mg/ml after 24 hr by agar well diffusion method. Conditions: for zone of inhibition at 1000 µg/mL: RSKK 863, 24 h, read-out: IZ. The class given is functional.
For experiment [2], the system named is Pseudomonas aeruginosa. Nature of the experiment: Antibacterial activity against Pseudomonas aeruginosa […] at 1 mg/ml after 24 hr by agar well diffusion method. The experiment is classed as functional. The conditions noted are these: for zone of inhibition at 1000 µg/mL: read-out: IZ.
The subject of experiment [3] is Escherichia coli. Nature of the experiment: Antibacterial activity against Escherichia coli ATCC 35218 at 1 mg/ml after 24 hr by agar well diffusion method. The conditions noted are these: for zone of inhibition at 1000 µg/mL: ATCC 35218, 24 h, read-out: IZ. The experiment is classed as functional.
Experiment [4] concerns Pseudomonas aeruginosa. The experiment can be described thus: Antibacterial activity against Pseudomonas aeruginosa […] at 30 ug/disk after 24 hr by agar well diffusion method. The experiment is classed as functional.
The test system of experiment [5] is Bacillus cereus. Nature of the experiment: Antibacterial activity against Bacillus cereus RSKK 863 at 30 ug/disk after 24 hr by agar well diffusion method. The experiment is classed as functional. Conditions: for zone of inhibition at 30 µg/disc: RSKK 863, 24 h, read-out: IZ.
The test system of experiment [6] is Escherichia coli. The experiment can be described thus: Antibacterial activity against Escherichia coli ATCC 35218 at 30 ug/disk after 24 hr by agar well diffusion method. The experiment is classed as functional, organism-based.
Experiment [7] has as its system Pseudomonas aeruginosa. The experiment can be described thus: Antibacterial activity against Pseudomonas aeruginosa […] at 10 units/disk after 24 hr by agar well diffusion method. The class given is functional, organism-based.
Experiment [8] has as its system Bacillus cereus. Nature of the experiment: Antibacterial activity against Bacillus cereus RSKK 863 at 10 units/disk after 24 hr by agar well diffusion method. The class given is functional, organism-based.
Experiment [9] concerns Escherichia coli. The experiment can be described thus: Antibacterial activity against Escherichia coli ATCC 35218 at 10 units/disk after 24 hr by agar well diffusion method. The class given is functional.
Experiment [10] relates to Pseudomonas aeruginosa. The experiment can be described thus: Antibacterial activity against Pseudomonas aeruginosa […] at 15 ug/disk after 24 hr by agar well diffusion method. The class given is functional, organism-based.
The test system of experiment [11] is Bacillus cereus. The experiment can be described thus: Antibacterial activity against Bacillus cereus RSKK 863 at 15 ug/disk after 24 hr by agar well diffusion method. The class given is functional. The conditions noted are these: RSKK 863, 24 h, read-out: IZ.
Experiment [12] concerns Escherichia coli. Nature of the experiment: Antibacterial activity against Escherichia coli ATCC 35218 at 15 ug/disk after 24 hr by agar well diffusion method. The class given is functional. Conditions: ATCC 35218, 24 h, read-out: IZ.
In experiment [13] the test system is Escherichia coli. The experiment can be described thus: Antibacterial activity against Escherichia coli ATCC 35218 at 10 ug/disk after 24 hr by agar well diffusion method. The class given is functional. The conditions noted are these: ATCC 35218, 24 h, read-out: IZ.
The test system of experiment [14] is Pseudomonas aeruginosa. Nature of the experiment: Antibacterial activity against Pseudomonas aeruginosa […] at 10 ug/disk after 24 hr by agar well diffusion method. The class given is functional, organism-based.
Experiment [15] has as its system Bacillus cereus. Nature of the experiment: Antibacterial activity against Bacillus cereus RSKK 863 at 10 ug/disk after 24 hr by agar well diffusion method. The conditions noted are these: RSKK 863, 24 h, read-out: IZ. The experiment is classed as functional.

The source of these data is ChEMBL document CHEMBL3046947, “Synthesis and antimicrobial activity studies of some novel substituted phenylhydrazono-1H-tetrazol-5-yl-acetonitriles” (2010).

Activity calls are given as the source filed them. No cut-off for these calls is given here.

In the case of `N#C/C(=N\Nc1ccccc1Cl)c1nnn[nH]1`, the zone of inhibition at 1000 µg/mL in the experiment with Staphylococcus aureus worked out at 7 mm; in the experiment with Bacillus cereus [1], 5 mm; with Pseudomonas aeruginosa [2] it was 10 mm. The “inhibition zone (IZ)” value in the experiment with Escherichia coli [3] was “inactive”.
Consider `N#C/C(=N\Nc1ccccc1)c1nnn[nH]1`, for which the zone of inhibition at 1000 µg/mL in the experiment with Staphylococcus aureus worked out at 8 mm; in the experiment with Bacillus cereus [1], 15 mm; in the experiment on Pseudomonas aeruginosa [2] it was 9 mm; in the experiment on Escherichia coli [3], 7 mm.
On to `OC(Cn1cncn1)(Cn1cncn1)c1ccc(F)cc1F`, for which the “inhibition zone (IZ)” value with Pseudomonas aeruginosa [4], in the experiment on Bacillus cereus [5] and in the experiment on Escherichia coli [6] was “inactive” in each case.
As for `N#C/C(=N\Nc1ccccc1[N+](=O)[O-])c1nnn[nH]1`, the zone of inhibition at 1000 µg/mL in the experiment with Staphylococcus aureus was determined as 4 mm; with Bacillus cereus [1] it was 10 mm; in the experiment on Pseudomonas aeruginosa [2] it was 4 mm; in the experiment with Escherichia coli [3] it was 7 mm.
`CC1(C)S[C@@H]2[C@H](NC(=O)Cc3ccccc3)C(=O)N2[C@H]1C(=O)O` [PENICILLIN G]: the “inhibition zone (IZ)” value in the experiment with Pseudomonas aeruginosa [7] and with Bacillus cereus [8] was “inactive” throughout. Also, in the experiment on Escherichia coli [9], the “inhibition zone (IZ)” value was determined as 17 mm.
`N#C/C(=N\Nc1ccccc1Br)c1nnn[nH]1`: the “inhibition zone (IZ)” value with Staphylococcus aureus is “inactive”. Moreover, the zone of inhibition at 1000 µg/mL is 12 mm in the experiment on Bacillus cereus [1], 3 mm with Pseudomonas aeruginosa [2] and 7 mm with Escherichia coli [3].
With `Cc1ccccc1N/N=C(\C#N)c1nnn[nH]1`, the zone of inhibition at 1000 µg/mL stood at 4 mm in the experiment on Staphylococcus aureus, 20 mm in the experiment with Bacillus cereus [1], 5 mm in the experiment with Pseudomonas aeruginosa [2] and 10 mm in the experiment on Escherichia coli [3].
Taken in the same sequence, the figures for `N#C/C(=N\Nc1ccc(Cl)cc1)c1nnn[nH]1` were 6 mm, 21 mm, 8 mm and 10 mm.
As for `CC[C@H]1OC(=O)[C@H](C)[C@@H](O[C@H]2C[C@@](C)(OC)[C@@H](O)[C@H](C)O2)[C@H](C)[C@@H](O[C@@H]2O[C@H](C)C[C@H](N(C)C)[C@H]2O)[C@](C)(O)C[C@@H](C)C(=O)[C@H](C)[C@@H](O)[C@]1(C)O` [ERYTHROMYCIN], in the experiment with Pseudomonas aeruginosa [10], the “inhibition zone (IZ)” value is “inactive”. Also, the results for the zone of inhibition at 15 µg/disc in the experiment on Bacillus cereus [11] and in the experiment with Escherichia coli [12] were 19 mm and 11 mm, respectively.
Take `COc1ccc(N/N=C(\C#N)c2nnn[nH]2)cc1`: the “inhibition zone (IZ)” value with Staphylococcus aureus and in the experiment with Pseudomonas aeruginosa [2] was “inactive” each time. Besides, the zone of inhibition at 1000 µg/mL with Bacillus cereus [1] came out at 7 mm; in the experiment with Escherichia coli [3] it was 10 mm.
On to `COc1ccccc1N/N=C(\C#N)c1nnn[nH]1`, for which the “inhibition zone (IZ)” value in the experiment with Staphylococcus aureus, in the experiment with Bacillus cereus [1], in the experiment on Pseudomonas aeruginosa [2] and with Escherichia coli [3] was “inactive” throughout.
Turning to `CN[C@H](CC(C)C)C(=O)N[C@H]1C(=O)N[C@@H](CC(N)=O)C(=O)N[C@H]2C(=O)N[C@H]3C(=O)N[C@H](C(=O)N[C@H](C(=O)O)c4cc(O)cc(O)c4-c4cc3ccc4O)[C@H](O)c3ccc(c(Cl)c3)Oc3cc2cc(c3O[C@@H]2O[C@H](CO)[C@@H](O)[C@H](O)[C@H]2O[C@H]2C[C@](C)(N)[C@H](O)[C@H](C)O2)Oc2ccc(cc2Cl)[C@H]1O` [VANCOMYCIN], the “inhibition zone (IZ)” value in the experiment with Pseudomonas aeruginosa [4] and in the experiment on Escherichia coli [6] was “inactive” throughout. Besides, in the experiment on Bacillus cereus [5], the zone of inhibition at 30 µg/disc turned out to be 17 mm.
With `N#C/C(=N\Nc1ccc([N+](=O)[O-])cc1)c1nnn[nH]1`, the zone of inhibition at 1000 µg/mL stood at 3 mm with Staphylococcus aureus, 11 mm in the experiment on Bacillus cereus [1], 5 mm in the experiment on Pseudomonas aeruginosa [2] and 10 mm in the experiment with Escherichia coli [3].
Taken in the same sequence, the figures for `N#C/C(=N\Nc1ccc(I)cc1)c1nnn[nH]1` were 8 mm, 10 mm, 9 mm and 7 mm.
As to `CN(C)[C@@H]1C(O)=C(C(N)=O)C(=O)[C@@]2(O)C(O)=C3C(=O)c4c(O)cccc4[C@@](C)(O)[C@H]3C[C@@H]12` [TETRACYCLINE], the zone of inhibition at 30 µg/disc in the experiment on Pseudomonas aeruginosa [4] (read-out: IZ) was 16 mm; with Bacillus cereus [5], 17 mm. The “inhibition zone (IZ)” value in the experiment on Escherichia coli [6] was “inactive”.
Take `N#C/C(=N\Nc1ccccc1I)c1nnn[nH]1`: the zone of inhibition at 1000 µg/mL in the experiment with Staphylococcus aureus is 3 mm; in the experiment with Bacillus cereus [1], 17 mm; in the experiment on Pseudomonas aeruginosa [2], 5 mm; in the experiment with Escherichia coli [3], 7 mm.
Taken in the same sequence, the figures for `Cc1ccc(N/N=C(\C#N)c2nnn[nH]2)cc1` were 8 mm, 20 mm, 8 mm and 10 mm.
In the case of `CC1(C)S[C@@H]2[C@H](NC(=O)[C@H](N)c3ccccc3)C(=O)N2[C@H]1C(=O)O` [AMPICILLIN], the zone of inhibition at 10 µg/disc with Escherichia coli [13] was 9 mm; with Bacillus cereus [15], 20 mm. In addition, in the experiment on Pseudomonas aeruginosa [14], the “inhibition zone (IZ)” value was “inactive”.
Regarding `N#C/C(=N\Nc1ccccc1F)c1nnn[nH]1`, the zone of inhibition at 1000 µg/mL in the experiment on Staphylococcus aureus turned out to be 5 mm; with Bacillus cereus [1], 19 mm; with Pseudomonas aeruginosa [2] it was 4 mm; with Escherichia coli [3], 14 mm.
Taken in the same sequence, the figures for `N#C/C(=N\Nc1ccc(Br)cc1)c1nnn[nH]1` were 6 mm, 20 mm, 8 mm and 14 mm.
On the same counts, the results for `N#C/C(=N\Nc1ccc(F)cc1)c1nnn[nH]1` are 10 mm, 19 mm, 8 mm and 11 mm.
